Experimental data taken from ChEMBL document CHEMBL4819150, “The structural simplification of lysergic acid as a natural lead for synthesizing novel anti-Alzheimer agents” (2021).
The source made the active and inactive calls. The rule behind the calls is not given here.

Tests used:
PC-12 [1] = experiment: Neuroprotective activity against rat PC12 cells under glucose and oxygen-deprived condition assessed as fold increase in cell viability at 1 uM relative to DPZ; type: functional
PC-12 [2] = experiment: […] activity in rat PC12 cells assessed as reduction in TCN-induced ER stress by measuring increase in cell viability at 1 uM relative to control; type: functional, cell-based
PC-12 [3] = experiment: Neuroprotective activity against rat PC12 cells under glucose and oxygen-deprived condition assessed as increase in cell viability at 1 uM relative to control; type: functional, cell-based
PC-12 [4] = experiment: Neuroprotective activity against rat PC12 cells under glucose and oxygen-deprived condition assessed as increase in cell viability at 0.1 uM relative to control; type: functional, cell-based
SIM-A9 [5] = experiment: Neuroprotective activity against LPS-induced mouse SIM-A9 cells assessed as increase in cell viability at 1 uM relative to control; type: functional, cell-based
SIM-A9 [6] = experiment: Antiinflammatory activity in mouse microglial SIM-A9 cells assessed as reduction in LPS-stimulated nitric oxide release at 1 uM relative to control; type: functional, cell-based

| SMILES | fold change (FC) (PC-12 [1]) | Activity (PC-12 [2]) | Activity (PC-12 [3]) | Activity (PC-12 [4]) | Activity (SIM-A9 [5]) | Activity (SIM-A9 [6]) |
| --- | --- | --- | --- | --- | --- | --- |
| COC(=O)C[C@H]1c2cccc3[nH]cc(c23)C[C@@H]1[N+](=O)[O-] | 10 | Active | Active |  |  |  |
| COc1cc2c(cc1OC)C(=O)C(CC1CCN(Cc3ccccc3)CC1)C2 (stereo unspecified) |  | Active | Active | Active | Active | Active |
| CN(C)Cc1c[nH]c2cccc(/C=C/C(N)=O)c12 | 10 | Active | Active |  | Active | Active |
| CN(C)Cc1c[nH]c2cccc(Br)c12 | 10 | Active | Active |  |  | Active |
| COC(=O)/C=C/c1cccc2[nH]cc(CN(C)C)c12 | 10 | Active | Active |  | Active | Active |
| COCc1c[nH]c2cccc(/C=C/C(=O)OC)c12 | 10 | Active | Active |  | Active | Active |
| O=[N+]([O-])C(Cc1c[nH]c2cccc(Br)c12)Cc1c[nH]c2cccc(Br)c12 | 10 | inactive | Active |  | inactive |  |
